According to patent US12668803B2, “Glypican-3-specific modified aptamer and use thereof” (APTAMER SCIENCES INC., priority 2019, dated 2026):

Columns and labels:
HepG2 = assay: Cellular internalization of gemcitabine-bound chemically optimized aptamers; format: cell-based; conditions: analysis in HepG2 and A431 cells, FIGS. 20 to 22
Experimental: [The source words this procedure for another cell line and reports this cell line under the same test.] 5 aptamer libraries prepared by truncating the 12-10 aptamer at various lengths [12-12 (35-mer), 12-11 (29-mer), 12-13 (24-mer), 12-14 (23-mer), and 12-15 (18-mer)] were subjected to cellular internalization analysis. In detail, a 6-well plate was prepared, and a round cover glass was placed in the 6-well plate. Huh-7 cells were cultured in the 6-well plate according to the method of Example 1-3. 5 μM of the aptamer stock was mixed with 5×SB18 buffer to prepare the aptamer at a concentration of 4 μM, and heated at 95° C. for 5 min, and then cooled at room temperature for 15 min or more. The next day, the medium was removed from the cultured cells, and a serum-free medium was added thereto, and cultured under conditions of 37° C. and 5% CO2 for 1 hr. The serum-free medium was removed, and then the cells were washed with 2 mL of 1×PBS. KRPH buffer was added, and cultured under conditions of 37° C. and 5% CO2 for 1 hr. 4 μM aptamer was diluted to 25 nM, and then cultured under conditions of 37° C. and 5% CO2 for 1 hr or 4 hr. Washing was repeated three times with 2 mL of 1×PBS. Washing was performed in a shaker at room temperature for 10 min while blocking the light. Thereafter, the cells were fixed by treatment with 4% paraformaldehyde at 4° C. for 10 min. Washing was repeated three times with 2 mL of 1×PBS. […]

Huh 7 cells = assay: Cell binding analysis of Cy5-labeled aptamers (FACS); format: cell-based; conditions: three vs five gemcitabines bound, method of Example 2-1, FIG. 19
Experimental: The 12-10 aptamer and 5 aptamer libraries prepared by truncating the 12-10 aptamer at various lengths [12-10 (40-mer), 12-12 (35-mer), 12-11 (29-mer), 12-13 (24-mer), 12-14 (23-mer), 12-15 (18-mer)] were subjected to cell binding analysis. Each aptamer sequence was labeled with Cy5 at the 5′ end thereof according to the method of Example 1-1. Huh 7 cells (ATCC, Rockville, MD, USA) were seeded at a density of 2×10^6/mL in a 100 mm^2 culture plate, and cultured using a DMEM medium (Gibco, Grand Island, NY, USA) containing 10% FBS (Gibco, Grand Island, NY, USA) and 1% antibiotics (penicillin/streptomycin) under conditions of 5% CO2 and 37° C. 5 μM of the aptamer stock was mixed with 5×SB18 buffer to prepare the aptamer at a concentration of 4 μM, and heated at 95° C. for 5 min, and then cooled at room temperature for 15 min or more. 4 μM of the aptamer was diluted with KRPH buffer (20 mM HEPES, 5 mM KH2PO4, 1 mM MgSO4, 1 mM CaCl2, 136 mM NaCl, 4.7 mM KCl, pH 7.4) at a concentration of 25 nM. The culture medium was removed from the cultured cells, and 4 mL of phosphate-buffered saline (PBS) was added thereto, followed by washing, and then 4 mL of PBS was removed. 4 mL of cold PBS or warm PBS was added, and cells were scraped using a scraper, and collected in tubes, followed by pipetting. The cells were divided and added to fluorescence-activated cell sorting (FAC) tubes according to the number of samples, followed by centrifugation at 4° C. and 2000 rpm for 4 min. After removing the supernatant, each 500 μL of 25 nM aptamer and control (31-08 (40-mer) aptamer) were added to […] of KRPH buffer, followed by pipetting. The tube was covered with foil to block the light, followed by incubation at 4° C. for 30 min. After incubation, centrifugation was performed at 4° C. and 2000 rpm for 4 min, and the supernatant was removed. 2 mL of cold 1×PBS was added, washed, centrifuged at 4° C. and 2000 rpm for 4 min, and the supernatant was removed. This process was repeated three times. […] Cy5 was measured at […]. […]

[1] = Serum stability analysis (urea PAGE); format: in vitro ADME, human
Experimental: To examine whether 12-12, combi 5 aptamer, combi 4 and combi 5 modified aptamers bound with three or five gemcitabines are stable in the human serum, serum stability was analyzed. In detail, 10 μL of […] was added to 100% human serum, followed by incubation at 37° C. for 0 hr, 1 hr, 3 hr, 6 hr, 12 hr, and 24 hr. After incubation, 5 μL of […] was added, and distilled water was added to a volume of 250 μL. 250 μL of phenol:chloroform:isoamyl alcohol (25:24:1) was added in the equal volume, followed by stirring. Each sample was centrifuged at 16000×g for 10 min. The supernatant was transferred to a new tube, and completely dried. The resultant was diluted with 5× sample buffer and distilled water, and boiled at 95° C. for 5 min, and cooled. The sample was separated by urea PAGE (Polyacrylamide gel Electrophoresis) at 220 V for 25 min, and then stained with SYBR gold and examined using a Gel Doc™ EZ system.

Question: For “Combi 5 G(3) (DNA GNGAANGCGNNGAANNANWYSSSNNCAGNCANCAC; gemcitabines, 2'-OMe, 2'-F, BzdU, 3' idT; Combi 5 G(3); (1)..(1) G is 2-O-Methoxy-DNA.; (2)..(2) n is BzdU.; (3)..(3) G is 2-O-Methoxy-DNA.; (4)..(4) A is 2-Fluorine-DNA.; (5)..(5) A is 2-Fluorine-DNA.; (6)..(6) n is BzdU.; (10)..(10) n is BzdU.; (11)..(11) n is BzdU.; (12)..(12) G is 2-Fluorine-DNA.; (13)..(13) A is 2-Fluorine-DNA.; (14)..(14) A is 2-O-Methoxy-DNA.; (15)..(15) n is BzdU.; (16)..(16) n is BzdU.; (17)..(17) A is 2-O-Methox)”, which cellular internalization (HepG2) is on record?
Answer: Its cellular internalization is “excellent cellular internalization”.

Question: What about the cell binding ability (Huh 7 cells) of the same substance?
Answer: The cell binding ability was “excellent cell binding ability”.

Question: And the “half-life in the human serum” value ([1]; 100% human serum, 37° C., FIG. 28)?
Answer: The value was “about 64 hr”.

Question: And the “improvement of serum half-life compared with 12-12 aptamer” value ([1]; human serum)?
Answer: Its value is at least 10 times.
